Where “and” joins values, the source holds several entries; their conditions need not be identical. Equal values may be shown once. Read-outs that look alike come from different tables or passages of the source.
Experiments:
gambiense HAT infection = test system: gambiense HAT infection; design: method as in PMID 36460027; conditions: single oral 960 mg, fasting, cited from earlier work
[1] = Excretion and mass balance of total radioactivity in urine and feces (AMS); assay type: in vivo, human
Protocol: Urine samples were collected before IP administration (single urine void) and then during intervals of 0–6, 6–12, 12–24, 24–48, 48–72, 72–96, 96–120, 120–168, 168–192, 192–216, and 216–240 h post-dose and for the additional 48-h collection period starting on Day 15 post-dose, that is, 336–384 h. Samples were acidified with citric acid to avoid acoziborole degradation and were refrigerated until the end of the block collection periods. The total weight and volume of urine were then recorded. At the end of each collection period, two aliquots of acidified urine (20 mL) were taken from the sample and stored in polypropylene tubes at −20°C until further analysis for total radioactivity. Two aliquots of 1 mL acidified urine were collected into tubes containing bovine serum albumin in aqueous solution (to avoid non-specific adsorption of acoziborole) and NaCl for acoziborole and SCYX-3109 assays. Urine samples for metabolite profiling were pooled for each participant according to the time intervals reported above, from 0 to 240 h.
Feces were collected before dosing and at block intervals of 0–6, 6–12, 12–24, 24–48, 48–72, 72–96, 96–120, 120–168, and 168–240 h post-dose and for five additional 48-h home collection periods starting on Days 15, 29, 59, 89, and 119. At the end of each collection period, a portion of the sample (50 g) was retained and stored at approximately −20°C until analyzed. The remaining fecal homogenate was combined with that collected at the end of each time interval and stored at approximately −20°C.
TNO (Leiden, the Netherlands) performed the analysis of total radioactivity and the metabolite profiling and identification. All blood, plasma, urine, and fecal homogenate samples were analyzed for total radioactivity by accelerator mass spectrometry (AMS). AMS analysis was performed on a 1 MV multi-element AMS, model 4110 Bo, high voltage engineering (software: AMS 155), using Australian National University (ANU) sucrose-8542 (C12H22O11) with a certified ^14C/^12C isotope ratio ([10]) as the system suitability test sample and [^14C]-paracetamol as an AMS quality check sample.
For each (diluted) sample, 5 µL blood, 5 µL plasma, 15 µL urine, or 30 mg fecal homogenate prepared in 1% CMC solution (1% CMC solution:feces ratio of 4:1) were transferred to tin foil cups. The samples were dried under a stream of nitrogen and subsequently placed in the elemental analyzer (EA, Vario Micro, Elementar, Germany), which acts as an autosampler and combustion device for the AMS. Single samples of blood, plasma, and urine were analyzed. Fecal homogenates were analyzed in triplicate, and the averaged value was reported. Total radioactivity in plasma and blood was expressed as ng equivalents (Eq) of acoziborole/mL. The LLOQ was 47.3 ngEq/mL in plasma (1.51 mBq/mL), 165.4 ngEq/mL in blood (5.28 mBq/mL), 33.8 ngEq/mL in urine (1.08 mBq/mL), and 87.1 ngEq/mL in feces (2.78 mBq/mL).
Blood-to-plasma ratio was calculated based on Cmax and AUC values. For total radioactivity excreted in urine, feces, and both combined, the following parameters were calculated: total amount of total radioactivity excreted over the time interval between t1 and t2 (Aet1−t2), Aet1−t2 expressed as a percentage of the radioactive dose administered (%Aet1−t2), CumAe, and Cum%Ae. For CumAe calculation, the recovery of total radioactivity during WinNonlin time intervals in which urine and feces were not collected was estimated using the area under the excretion rate-time curve from the end of the preceding collection interval to the start of the subsequent collection interval.

[2] = Metabolite profiling and identification in pools of plasma, urine and feces (UPLC-MS, AMS); assay type: in vivo, human
Protocol: Individual pools of plasma (0–336 h, including time points at 1, 4, 9, 12, 24, 48, 72, 96, 120, 168, 240, and 336 h), urine (0–240 h, including time intervals 0–6, 6–12, 12–24, 24–48, 48–72, 72–96, 96–120, 120–168, 168–192, 192–216, and 216–240 h) and feces homogenates (0–240 h, including time intervals 0–6, 6–12, 12–24, 24–48, 48–72, 72–96, 96–120, 120–168, and 168–240 h) were prepared; for plasma this was done according to the method described in reference and for feces by using equal percentages per time point based on total volume. Subsequently, a pool per matrix was prepared by mixing equal volumes of each participant pool. In addition, a plasma pre-dose pool was prepared by mixing equal volumes of each pre-dose sample. For urine and feces, TNO blank pool was used to generate a pre-dose sample. Samples were stored below −18°C. Samples (100 µL plasma, 250 µL urine, and 200 mg feces) were pre-treated and injected onto an ultra-high performance liquid chromatography (UPLC)-MS system (Acquity UPLC system [Waters] coupled to a Q-Exactive [Thermo]; Acquity HSS C18 VanGuard 5 mm × 2.1 mm, 1.8 µm [Waters] pre-column and Acquity HSS C18 100 mm × 2.1 mm, 1.8 µm d.p. [Waters]). Fractions were collected and analyzed off-line by AMS. AMS analysis was performed on an AMS system, consisting of an elemental analyzer, a double gas interface, and a 1 MV multi-element AMS. All fecal homogenate sample analyzes were performed in triplicate. Plasma pre-dose and TNO blank urine and feces pools were used for background correction. The UPLC method qualification included determination of retention time stability and extraction recovery. Metabolites were tentatively assigned to fractions in which activity greater than the baseline was observed, based on retention time and structural information provided by DNDi. Presence of the metabolite was confirmed by accurate mass data from high-resolution mass spectrometric analysis.

[3] = 960 mg single oral dose, N = 6, mean and SD
[4] = 960 mg single oral dose, N = 6, mean and SD, listed as [^14C]-acoziborole
[5] = t set to 1440 h (60 days), N = 6, mean and SD
[6] = t set to 1440 h (Day 60), N = 6, mean and SD, listed as [^14C]-acoziborole

CC1(C)OB(O)c2cc(NC(=O)c3ccc(F)cc3C(F)(F)F)ccc21 [acoziborole]
safety and tolerability profile (gambiense HAT infection; 208 patients): acceptable safety and tolerability profile | treatment success rate at 18 months (gambiense HAT infection; 159 out of 162 patients, evaluable population): 98.1% | treatment success rate at 18 months (gambiense HAT infection; late-stage patients, modified intention-to-treat population): 95.2% | Cum%Ae0-240h dose, total radioactivity recovered (urine and faeces) [1, 3]: 58.6 ± 8.6% | Cum%Ae0-384h dose, total radioactivity recovered (urine and faeces) [1, 3]: 70.8 ± 8.1% | CumAe0-240h, total radioactivity in faeces [1, 3]: 488.8 ± 84.8 mgEq | CumAe0-240h, total radioactivity in urine [1, 3]: 74.0 ± 18.5 mgEq | CumAe0-240h, total radioactivity recovered (urine and faeces) [1, 3]: 562.9 ± 82.8 mgEq | CumAe0-384h, total radioactivity in faeces [1, 3]: 574.9 ± 81.4 mgEq | CumAe0-384h, total radioactivity in urine [1, 3]: 104.6 ± 28.9 mgEq | CumAe0-384h, total radioactivity recovered (urine and faeces) [1, 3]: 679.6 ± 77.5 mgEq | Cum%Ae0-240h dose, total radioactivity in faeces [1, 4]: 50.9 ± 8.8% | Cum%Ae0-240h dose, total radioactivity in urine [1, 4]: 7.7 ± 1.9% | Cum%Ae0-384h dose, total radioactivity in faeces [1, 4]: 59.9 ± 8.5% | Cum%Ae0-384h dose, total radioactivity in urine [1, 4]: 10.9 ± 3.0% | increment in excretion of total radioactivity ([1]; between Days 59 and 61 (up to 1,440 h)): < 1% | absorbed fraction, estimated ([1]; fasting condition, assuming gastrointestinal transit time of approximately 3 days): ≥ 70 % of the dose | geometric mean recovery of total radioactivity in urine and feces ([1]; over the total 1,392 h, CV% 5.5%): 87.2% | CumAe0-t, total radioactivity in faeces [1, 5]: 712.1 ± 56.4 mgEq | CumAe0-t, total radioactivity recovered (urine and faeces) [1, 5]: 838.4 ± 48.9 mgEq | Cum%Ae0-t dose, total radioactivity in faeces [1, 6]: 74.2% and 74.2 ± 5.9% | Cum%Ae0-t dose, total radioactivity recovered (urine and faeces) [1, 6]: 87.3% and 87.3 ± 5.1% | CumAe0-t, total radioactivity in urine ([1]; urine collection limited to 384 h, N = 6, mean and SD): 104.6 ± 28.9 mgEq | Cum%Ae0-t dose, total radioactivity in urine ([1]; urine collection limited to 384 h, N = 6, mean and SD, listed as [^14C]-acoziborole): 10.9% and 10.9 ± 3.0% | proportion of the dose excreted, urine and feces combined ([2]; 0–240 h pools): 34.2% | abundance relative to dose, feces ([2]; feces homogenates 0–240 h): 33.6% | relative abundance in radiochromatogram, feces homogenates pool ([2]; feces homogenates 0–240 h): 66.0% | relative abundance in radiochromatogram (share of total radioactivity), plasma pool ([2]; plasma pool 0–336 h, 960 mg single oral [14C]-acoziborole, listed as Parent (acoziborole)): 95.1% | abundance relative to dose, urine ([2]; urine pool 0–240 h): 0.6% and < 1% | relative abundance in radiochromatogram, urine pool ([2]; urine pool 0–240 h): 7.6% | abundance relative to dose, urine ([2]; urine pool 0–240 h, listed as Parent (acoziborole)): 0.6%

— PMC12587574, “Mass balance, pharmacokinetics, metabolism, and excretion of radiolabeled acoziborole, a potential novel treatment for human African trypanosomiasis, following single microtracer oral dose to humans” (Antimicrobial Agents and Chemotherapy, 2025)
